Assay results from ChEMBL document CHEMBL6182855, “Design and synthesis of phenanthridinone and phenanthridine derivatives and their radiosensitizing activity” (2025).
Activity calls are given as the source filed them. No cut-off for these calls is given here.

Legend:
[1] = biological target: Tyrosyl-DNA phosphodiesterase 1 (Homo sapiens) (UniProt Q9NUW8); assay: Inhibition of TDP1 (unknown origin) using (5'-FAM-AGGATCTAAAAGACTT-BHQ-3') as substrate at 100 uM by fluorescence assay
HCT-116 [2] = assay: Cytotoxicity against human HCT-116 cells assessed as cell growth inhibition incubated for 72 hrs by CCK-8 assay; format: functional
HCT-116 [3] = assay: Cytotoxicity against human HCT-116 cells assessed as cell killing at 0.5 uM incubated for 72 hrs by CCK-8 assay relative to control; format: functional
HCT-116 [4] = assay: Inhibition of colony formation in human HCT-116 cells at 0.25 uM incubated for 24 hrs by crystal violet staining based colony formation assay relative to control; format: functional
HCT-116 [5] = assay: Induction of ROS generation in human HCT-116 cells assessed as fold increase in ROS level at 10 uM in presence of IR 4 Gy by DCFH-DA staining based ELISA; format: functional
HCT-116 [6] = assay: Induction of cell cycle arrest in human HCT-116 cells assessed as accumulation of cells at G2/M phase at 5 uM incubated for 24 hrs by PI staining based flow cytometric analysis (reference value: 23.42 %); format: functional
HCT-116 [7] = assay: Induction of apoptosis in human HCT-116 cells assessed as viable cells at 5 uM incubated for 24 hrs in presence of IR-4 Gy by AnnexinV-FITC/PI staining based flow cytometry (reference value: 94.08%); format: functional; conditions: read-out: Activity
HCT-116 [8] = assay: Induction of apoptosis in human HCT-116 cells assessed as early apoptotic cells at 5 uM incubated for 24 hrs in presence of IR-4 Gy by AnnexinV-FITC/PI staining based flow cytometry (reference value: 4.88%); format: functional
HCT-116 [9] = assay: Induction of ROS generation in human HCT-116 cells assessed as fold increase in ROS level at 5 uM in presence of IR 4 Gy by DCFH-DA staining based ELISA; format: functional
HCT-116 [10] = assay: Induction of cell cycle arrest in human HCT-116 cells assessed as accumulation of cells at G2/M phase at 5 uM incubated for 24 hrs in presence of IR-4 Gy by PI staining based flow cytometric analysis (reference value: 29.00 %); format: functional
HCT-116 [11] = assay: Radiosensitization activity in human HCT-116 cells assessed as combination index at 0.1 to 0.5 uM incubated for 24 hrs in presence of IR-2 Gy by crystal violet staining based colony formation assay; format: functional; conditions: dose 0.1-0.5 µM
HCT-116 [12] = assay: Induction of apoptosis in human HCT-116 cells assessed as late apoptotic cells at 5 uM incubated for 24 hrs by AnnexinV-FITC/PI staining based flow cytometry (reference value: 0.41%); format: functional
HCT-116 [13] = assay: Radiosensitization activity in human HCT-116 cells assessed as combination index at 0.25 uM incubated for 24 hrs in presence of IR-5 Gy by crystal violet staining based colony formation assay; format: functional
HCT-116 [14] = assay: Induction of ROS generation in human HCT-116 cells at 5 to 10 uM in presence of IR 4 Gy by DCFH-DA staining based ELISA; format: functional, cell-based; conditions: dose 5-10 µM
HCT-116 [15] = assay: Induction of cell cycle arrest in human HCT-116 cells assessed as accumulation of cells at G0/G1 phase at 5 uM incubated for 24 hrs by PI staining based flow cytometric analysis (reference value: 58.75%); format: functional
HCT-116 [16] = assay: Cytotoxicity against human HCT-116 cells assessed as cell survival at 0.5 uM incubated for 72 hrs by CCK-8 assay relative to control; format: functional; conditions: read-out: Activity
HCT-116 [17] = assay: Induction of DNA damage in human HCT-116 cells assessed as increase in gamma-H2AX fluorescence intensity at 10 uM incubated for 6 hrs in presence of IR 4 Gy by DAPI staining based immunofluorescence microscopic analysis; format: functional, cell-based
HCT-116 [18] = assay: Induction of ROS generation in human HCT-116 cells at 5 to 10 uM by DCFH-DA staining based ELISA; format: functional, cell-based; conditions: dose 5-10 µM
HCT-116 [19] = assay: Induction of apoptosis in human HCT-116 cells assessed as late apoptotic cells at 5 uM incubated for 24 hrs in presence of IR-4 Gy by AnnexinV-FITC/PI staining based flow cytometry (reference value: 0.93%); format: functional
HCT-116 [20] = assay: Radiosensitizing activity in human HCT-116 cells assessed as reduction in cell viability at 0.5 uM co-treated with IR-2 Gy incubated for 72 hrs by CCK-8 assay (reference value: 37%); format: functional
HCT-116 [21] = assay: Induction of apoptosis in human HCT-116 cells assessed as viable cells at 5 uM incubated for 24 hrs by AnnexinV-FITC/PI staining based flow cytometry (reference value: 98.05%); format: functional; conditions: read-out: Activity
HCT-116 [22] = assay: Induction of cell cycle arrest in human HCT-116 cells assessed as accumulation of cells at S phase at 5 uM incubated for 24 hrs by PI staining based flow cytometric analysis (reference value: 17.14%); format: functional
HCT-116 [23] = assay: Induction of cell cycle arrest in human HCT-116 cells assessed as accumulation of cells at S phase at 5 uM incubated for 24 hrs in presence of IR-4 Gy by PI staining based flow cytometric analysis (reference value: 13.71%); format: functional
HCT-116 [24] = assay: Induction of apoptosis in human HCT-116 cells assessed as early apoptotic cells at 5 uM incubated for 24 hrs by AnnexinV-FITC/PI staining based flow cytometry (reference value: 1.41%); format: functional
HCT-116 [25] = assay: Induction of DNA damage in human HCT-116 cells assessed as increase in gamma-H2AX fluorescence intensity at 10 uM incubated for 6 hrs by DAPI staining based immunofluorescence microscopic analysis; format: functional, cell-based
HCT-116 [26] = assay: Induction of cell cycle arrest in human HCT-116 cells assessed as accumulation of cells at G0/G1 phase at 5 uM incubated for 24 hrs in presence of IR-4 Gy by PI staining based flow cytometric analysis (reference value: 56.89%); format: functional
HCT-116 [27] = assay: Radiosensitization activity in human HCT-116 cells assessed as cell killing at 0.25 uM incubated for 24 hrs in presence of IR-5 Gy by crystal violet staining based colony formation assay relative to control; format: functional
HCT-116 [28] = assay: Radiosensitization activity in human HCT-116 cells incubated for 24 hrs in presence of IR-2 Gy by crystal violet staining based colony formation assay; format: functional, cell-based; conditions: dose 0.1-0.5 µM
HCT-116 [29] = assay: Cytotoxicity against human HCT-116 cells at 0.5 uM incubated for 72 hrs by CCK-8 assay; format: functional, cell-based
HCT-116 [30] = assay: Radiosensitizing activity in human HCT-116 cells assessed as cell killing at 0.5 uM co-treated with IR-2 Gy incubated for 72 hrs by CCK-8 assay (reference value: 37%); format: functional

Tyrosyl-DNA phosphodiesterase 1 (Homo sapiens), sequence (Q9NUW8 whole entry): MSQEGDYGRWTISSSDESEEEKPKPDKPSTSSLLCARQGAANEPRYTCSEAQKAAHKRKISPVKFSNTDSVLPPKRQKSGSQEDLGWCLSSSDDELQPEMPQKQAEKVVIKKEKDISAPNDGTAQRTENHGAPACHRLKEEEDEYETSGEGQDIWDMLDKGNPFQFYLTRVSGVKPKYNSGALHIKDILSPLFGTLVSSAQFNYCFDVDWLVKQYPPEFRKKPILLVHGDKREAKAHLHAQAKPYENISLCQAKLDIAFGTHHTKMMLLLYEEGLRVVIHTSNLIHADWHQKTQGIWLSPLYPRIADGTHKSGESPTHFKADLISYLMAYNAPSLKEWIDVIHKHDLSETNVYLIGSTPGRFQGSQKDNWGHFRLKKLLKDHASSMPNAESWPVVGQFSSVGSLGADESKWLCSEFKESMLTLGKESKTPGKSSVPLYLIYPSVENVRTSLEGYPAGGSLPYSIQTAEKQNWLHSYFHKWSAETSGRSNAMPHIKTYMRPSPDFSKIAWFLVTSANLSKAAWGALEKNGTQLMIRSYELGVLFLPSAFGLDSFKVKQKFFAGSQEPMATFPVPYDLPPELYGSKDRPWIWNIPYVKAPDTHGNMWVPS

For `COc1cc2c(=O)n(CCN3CCOCC3)c3c4c(ccc3c2cc1OC)OCO4`, the inhibition [1] was “inactive” and the GI50 (HCT-116 [2]) was 3.22 µM.
In the case of `COc1cc2c(=O)n(CCNC(=O)OC(C)(C)C)c3c4c(ccc3c2cc1OC)OCO4`, the inhibition [1] is reported as “inactive” and the GI50 (HCT-116 [2]) is reported as greater than 100 µM.
For `COc1cc2c(Nc3ccc(C(=O)N4CCN(C)CC4)cc3)nc3c4c(ccc3c2cc1OC)OCO4`, the inhibition [1] was “inactive” and the GI50 (HCT-116 [2]) was 3.32 µM.
`COc1cc2c(NCCN(C)C)nc3c4c(ccc3c2cc1OC)OCO4` was tested, and the Activity (HCT-116 [3]) was roughly 100%, the inhibition [1] was “inactive” and the GI50 (HCT-116 [2]) was 0.47 µM.
With `COc1cc2c(N3CCN(c4ncccn4)CC3)nc3c4c(ccc3c2cc1OC)OCO4` the inhibition at 0.25 µM (HCT-116 [4]) was 30%, the “fold change (FC)” value (HCT-116 [5]) was 1.8 and the Activity (HCT-116 [6]) was 37.67%. The viability at 5 µM (HCT-116 [7]) was 89.4%, the Activity (HCT-116 [8]) was 7.21% and the “fold change (FC)” value (HCT-116 [9]) was 1.4. The Activity (HCT-116 [10]) was 43.16%, the CI (HCT-116 [11]) was 0.4 and the Activity (HCT-116 [12]) was 2.1%. For the same compound, the CI (HCT-116 [13]) was 0.29, the Activity (HCT-116 [14]) was “Active” and the inhibition [1] was “inactive”. It also gave an Activity (HCT-116 [15]) of 36.95%, a viability at 0.5 µM (HCT-116 [16]) of 64% and a GI50 (HCT-116 [2]) of 6.08 µM. The Activity (HCT-116 [17]) was “Active”, the Activity (HCT-116 [18]) was “inactive” and the Activity (HCT-116 [19]) was 3.11%. For the same compound, the Activity (HCT-116 [20]) was less than 20%, the viability at 5 µM (HCT-116 [21]) was 95.2% and the Activity (HCT-116 [22]) was 23.9%. The Activity (HCT-116 [23]) was 22.09%, the Activity (HCT-116 [24]) was 1.75% and the Activity (HCT-116 [25]) was “Active”. The Activity (HCT-116 [26]) was 23.41%, the Activity (HCT-116 [27]) was roughly 99% and the Activity (HCT-116 [28]) was “Dose-dependent-effect”.
For `COc1cc2c(=O)n(CCn3cccn3)c3c4c(ccc3c2cc1OC)OCO4`, the inhibition [1] was “inactive” and the GI50 (HCT-116 [2]) was greater than 100 µM.
In the case of `COc1cc2c(Nc3ccc(C(=O)N4CCOCC4)cc3)nc3c4c(ccc3c2cc1OC)OCO4`, the inhibition [1] is reported as “inactive” and the GI50 (HCT-116 [2]) is reported as 5.26 µM.
In the case of `COc1cc2c(=O)n(CCn3cccc3)c3c4c(ccc3c2cc1OC)OCO4`, the inhibition [1] is reported as “inactive” and the GI50 (HCT-116 [2]) is reported as 17.3 µM.
`COc1cc2c(=O)n(CCc3cccs3)c3c4c(ccc3c2cc1OC)OCO4` was tested, and the inhibition [1] was “inactive” and the GI50 (HCT-116 [2]) was 44.8 µM.
`COc1cc2c(=O)n(Cc3ccc(C(=O)O)cc3)c3c4c(ccc3c2cc1OC)OCO4` was tested, and the inhibition [1] was “inactive” and the GI50 (HCT-116 [2]) was greater than 100 µM.
With `COc1cc2c(=O)n(CCN3CCCCC3)c3c4c(ccc3c2cc1OC)OCO4` the inhibition [1] was “inactive”, the GI50 (HCT-116 [2]) was 0.81 µM and the Activity (HCT-116 [29]) was “inactive”. The Activity (HCT-116 [30]) was 55%.
For `COc1cc2c(=O)n(CCN3CCCC3)c3c4c(ccc3c2cc1OC)OCO4`, the Activity (HCT-116 [3]) was roughly 100%, the inhibition [1] was “inactive” and the GI50 (HCT-116 [2]) was 0.56 µM.
In the case of `COc1cc2c(=O)n(CCN(C)C)c3c4c(ccc3c2cc1OC)OCO4`, the Activity (HCT-116 [3]) is reported as roughly 100%, the inhibition [1] is reported as “inactive” and the GI50 (HCT-116 [2]) is reported as 0.55 µM.
For `COc1cc2c(OCCN(C)C)nc3c4c(ccc3c2cc1OC)OCO4`, the Activity (HCT-116 [3]) was roughly 100%, the inhibition [1] was “inactive” and the GI50 (HCT-116 [2]) was 0.32 µM.
For `COc1cc2c(NCCN3CCCC3)nc3c4c(ccc3c2cc1OC)OCO4`, the inhibition [1] was “inactive”, the viability at 0.5 µM (HCT-116 [16]) was roughly 80% and the GI50 (HCT-116 [2]) was 2.11 µM. For the same compound, the Activity (HCT-116 [20]) was “Active”.
For `COc1cc2c(Nc3ccc(C(=O)N(C)C)cc3)nc3c4c(ccc3c2cc1OC)OCO4`, the inhibition [1] was “inactive” and the GI50 (HCT-116 [2]) was 7.79 µM.
For `COc1cc2c(=O)n(CC(=O)N3CCOCC3)c3c4c(ccc3c2cc1OC)OCO4`, the inhibition [1] was “inactive” and the GI50 (HCT-116 [2]) was 54.2 µM.
In the case of `COc1cc2c(Nc3ccc(C(=O)N4CCC(OC)CC4)cc3)nc3c4c(ccc3c2cc1OC)OCO4`, the inhibition [1] is reported as “inactive” and the GI50 (HCT-116 [2]) is reported as 2.76 µM.
For `COc1cc2c(NCCN3CCN(C)CC3)nc3c4c(ccc3c2cc1OC)OCO4`, the inhibition [1] was “inactive” and the GI50 (HCT-116 [2]) was 0.85 µM.
`COc1cc2c(OCCN3CCN(C)CC3)nc3c4c(ccc3c2cc1OC)OCO4` was tested, and the inhibition [1] was “inactive” and the GI50 (HCT-116 [2]) was 7.88 µM.
`COc1cc2c(OCCN3CCCC3)nc3c4c(ccc3c2cc1OC)OCO4` was tested, and the Activity (HCT-116 [3]) was roughly 100%, the inhibition [1] was “inactive” and the GI50 (HCT-116 [2]) was 0.31 µM.
`COc1ccc(Cn2c(=O)c3cc(OC)c(OC)cc3c3ccc4c(c32)OCO4)cc1` was tested, and the inhibition [1] was “inactive” and the GI50 (HCT-116 [2]) was greater than 100 µM.
In the case of `COc1cc2c(=O)n(CCN3CCN(C)CC3)c3c4c(ccc3c2cc1OC)OCO4`, the inhibition [1] is reported as “inactive” and the GI50 (HCT-116 [2]) is reported as 9.95 µM.
In the case of `COc1cc2c(=O)n(Cc3ccc(OC(F)(F)F)cc3)c3c4c(ccc3c2cc1OC)OCO4`, the inhibition [1] is reported as “inactive” and the GI50 (HCT-116 [2]) is reported as 4.79 µM.
With `COc1cc2c(Nc3ccc(C(=O)N4CCCC4)cc3)nc3c4c(ccc3c2cc1OC)OCO4` the inhibition [1] was “inactive” and the GI50 (HCT-116 [2]) was 1.46 µM.
